24 compounds from patent US10144742B2 (Millennium Pharmaceuticals, Inc., priority 2014, dated 2018) can be followed below.

Read-outs that look alike come from different tables or passages of the source.

The subject of one assay is PC3 cells. Briefly: PC3 growth inhibition (Cell-titer glo, 72 hours). The following applies: Homo sapiens, PC-3; compound concentration 1.667 μM; PC3 cells, 72 hours, Cell-titer glo; read-out: Percent Inhibition (PC3 growth inhibition). It counts as cell-based. The gist of the method: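 PC3 cells in RPMI1640 seeded overnight at 37 °C, 5% CO2, then exposed to compound diluted in AIM serum-free medium for 72 h. Viability by CellTiter-Glo luminescence vs DMSO controls; single-concentration % remaining viability (1 μM or 1.667 μM), or GI50/LD50 from curves.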

A further assay deals with hNAMPT protein (Homo sapiens (Human), UniProt P43490). Briefly: NAMPT enzyme assay (TR-FRET/HTRF, BodiPY ligand, anti 6His-Tb). Format: binding. The following applies: for IC50: read-out: IC50; for inhibition at 1 µM: read-out: Percent Inhibition. The essentials: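 TR-FRET binding assay in which His-tagged human NAMPT with anti-6His-Tb is displaced by compound from a BodiPY ligand, incubated 1 h at rt in the dark. Excitation was at 320 nm, with the 520/486 nm emission ratio read. IC50 was fitted from inhibition relative to DMSO controls.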
Sequence of hNAMPT protein (P43490 whole entry): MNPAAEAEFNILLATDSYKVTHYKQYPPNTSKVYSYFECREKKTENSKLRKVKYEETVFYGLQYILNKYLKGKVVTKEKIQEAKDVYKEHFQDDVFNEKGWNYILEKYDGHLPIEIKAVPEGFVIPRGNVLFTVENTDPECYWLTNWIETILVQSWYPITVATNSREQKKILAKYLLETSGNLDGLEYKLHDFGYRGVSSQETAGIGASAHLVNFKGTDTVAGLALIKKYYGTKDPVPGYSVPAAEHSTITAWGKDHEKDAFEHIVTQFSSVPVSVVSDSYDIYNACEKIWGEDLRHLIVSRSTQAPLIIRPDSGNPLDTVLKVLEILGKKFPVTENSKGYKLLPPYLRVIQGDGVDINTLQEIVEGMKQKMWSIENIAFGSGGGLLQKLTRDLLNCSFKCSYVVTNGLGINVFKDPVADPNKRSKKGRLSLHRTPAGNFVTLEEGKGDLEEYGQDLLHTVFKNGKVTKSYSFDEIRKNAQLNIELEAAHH

Turning to `O=C(NCCCc1ncc[nH]1)c1ccc2nc(O[C@@H]3CCOC3)c(-c3ccc(F)cc3)nc2c1` [Compound I-372, 3-(4-fluorophenyl)-N-[3-(1H-imidazol-2-yl)propyl]-2-[(3R)-tetrahydrofuran-3-yloxy]quinoxaline-6-carboxamide], in the assay on PC3 cells, the inhibition at 1.667 µM was 2%. Besides, the IC50 at hNAMPT protein (NAMPT IC50 range class) was less than 0.1 µM. Also, on hNAMPT protein (compound concentration 1 μM), the inhibition at 1 µM is greater than 99%.

On to `O=C(NCCCc1ncc[nH]1)c1ccc2nc(-c3ccc(F)cc3)c(-c3ccc(F)cc3F)nc2c1` [Compound I-373, 3-(2,4-difluorophenyl)-2-(4-fluorophenyl)-N-[3-(1H-imidazol-2-yl)propyl]quinoxaline-6-carboxamide], for which the inhibition at 1.667 µM in the assay on PC3 cells worked out at 2%. Also, on hNAMPT protein (NAMPT IC50 range class), the half-inhibitory concentration (IC50) is 0.1 to 0.5 µM. On hNAMPT protein (compound concentration 1 μM), the inhibition at 1 µM turned out to be 84%.

Turning to `O=C(NCCCc1ncc[nH]1)c1ccc2nc(-n3ccnn3)c(-c3ccc(F)cc3)nc2c1` [Compound I-374, 3-(4-fluorophenyl)-N-[3-(1H-imidazol-2-yl)propyl]-2-(1H-1,2,3-triazol-1-yl)quinoxaline-6-carboxamide], the inhibition at 1.667 µM in the assay on PC3 cells turned out to be 3%. Also, on hNAMPT protein (NAMPT IC50 range class), the concentration for half-maximal inhibition (IC50) was 0.1 to 0.5 µM. In addition, the inhibition at 1 µM on hNAMPT protein (compound concentration 1 μM) worked out at 75%.

`CC(C)Sc1nc2ccc(C(=O)NCCCc3ncc[nH]3)cc2nc1-c1ccc(F)cc1` [Compound I-375, 3-(4-Fluorophenyl)-N-[3-(1H-imidazol-2-yl)propyl]-2-(isopropylsulfanyl)quinoxaline-6-carboxamide]: the inhibition at 1.667 µM in the assay on PC3 cells came out at 2%. Moreover, the IC50 at hNAMPT protein (NAMPT IC50 range class) is 0.1 to 0.5 µM. In addition, the inhibition at 1 µM at hNAMPT protein (compound concentration 1 μM) turned out to be 80%.

Take `O=C(NCCc1ncc[nH]1)c1ccc2nc(-c3ccc(F)cc3)c(-c3cccc(Cl)c3)nc2c1` [Compound I-376, 3-(3-chlorophenyl)-2-(4-fluorophenyl)-N-[2-(1H-imidazol-2-yl)ethyl]quinoxaline-6-carboxamide]: in the assay with PC3 cells, the inhibition at 1.667 µM was found to be 52%. Further, the half-inhibitory concentration (IC50) at hNAMPT protein (NAMPT IC50 range class) fell in the range of 0.5 to 1 µM. The inhibition at 1 µM at hNAMPT protein (compound concentration 1 μM) was found to be 30%.

Take `N#Cc1cc(-c2nc3cc(C(=O)NCCCc4ncc[nH]4)ccc3nc2-c2ccc(F)cc2)ccc1Cl` [Compound I-377, 3-(4-chloro-3-cyanophenyl)-2-(4-fluorophenyl)-N-[3-(1H-imidazol-2-yl)propyl]quinoxaline-6-carboxamide]: in the assay with PC3 cells, the inhibition at 1.667 µM was 2%. Further, the IC50 at hNAMPT protein (NAMPT IC50 range class) fell in the range of 0.1 to 0.5 µM. Besides, the inhibition at 1 µM on hNAMPT protein (compound concentration 1 μM) is 85%.

`O=C(NCCCc1ncc[nH]1)c1ccc2nc(OCC3CC4(COC4)C3)c(-c3ccc(F)cc3)nc2c1` [Compound I-378, 3-(4-fluorophenyl)-N-[3-(1H-imidazol-2-yl)propyl]-2-(2-oxaspiro[3.3]hept-6-ylmethoxy)quinoxaline-6-carboxamide]: in the assay on PC3 cells, the inhibition at 1.667 µM was determined as 2%. The concentration for half-maximal inhibition (IC50) at hNAMPT protein (NAMPT IC50 range class) was less than 0.1 µM. The inhibition at 1 µM on hNAMPT protein (compound concentration 1 μM) is greater than 99%.

With `O=C(NCCCc1ncc[nH]1)c1ccc2nc(OCC3CCOC3)c(-c3ccc(F)cc3)nc2c1` (stereo not drawn) [Compound I-379, 3-(4-fluorophenyl)-N-[3-(1H-imidazol-2-yl)propyl]-2-(tetrahydrofuran-3-ylmethoxy)quinoxaline-6-carboxamide], in the assay on PC3 cells, the inhibition at 1.667 µM is 2%. Further, at hNAMPT protein (NAMPT IC50 range class), the IC50 was less than 0.1 µM. For the same compound, the inhibition at 1 µM on hNAMPT protein (compound concentration 1 μM) is 100%.

As to `CC(C)Oc1nc2ccc(C(=O)NCCCc3cn[nH]c3)cc2nc1-c1ccc(F)cc1` [Compound I-380, 3-(4-Fluorophenyl)-2-isopropoxy-N-[3-(1H-pyrazol-4-yl)propyl]quinoxaline-6-carboxamide], the inhibition at 1.667 µM in the assay on PC3 cells came out at 2%. Besides, the IC50 on hNAMPT protein (NAMPT IC50 range class) lay within 0.5 to 1 µM. Moreover, the inhibition at 1 µM on hNAMPT protein (compound concentration 1 μM) came out at 55%.

For `O=C(NCCCc1ncc[nH]1)c1ccc2nc(-c3ccc(F)cc3)c(-c3cc(C(F)(F)F)ccc3Cl)nc2c1` [Compound I-381, 3-[2-chloro-5-(trifluoromethyl)phenyl]-2-(4-fluorophenyl)-N-[3-(1H-imidazol-2-yl)propyl]quinoxaline-6-carboxamide], the inhibition at 1.667 µM in the assay on PC3 cells came out at 2%. The IC50 on hNAMPT protein (NAMPT IC50 range class) is less than 0.1 µM. Moreover, on hNAMPT protein (compound concentration 1 μM), the inhibition at 1 µM came to 96%.

For `CCc1ccc(-c2nc3cc(C(=O)NCCCc4ncc[nH]4)ccc3nc2-c2ccc(F)cc2)cc1` [Compound I-382, 3-(4-ethylphenyl)-2-(4-fluorophenyl)-N-[3-(1H-imidazol-2-yl)propyl]quinoxaline-6-carboxamide], in the assay with PC3 cells, the inhibition at 1.667 µM came to 3%. Besides, the IC50 on hNAMPT protein (NAMPT IC50 range class) was 0.5 to 1 µM. In addition, at hNAMPT protein (compound concentration 1 μM), the inhibition at 1 µM came out at 55%.

For `C[C@@H]1CN(c2nc3ccc(C(=O)NCCCc4ncc[nH]4)cc3nc2-c2ccc(F)cc2)C[C@H](C)O1` [Compound I-383, 2-[cis-2,6-dimethylmorpholin-4-yl]-3-(4-fluorophenyl)-N-[3-(1H-imidazol-2-yl)propyl]quinoxaline-6-carboxamide], in the assay on PC3 cells, the inhibition at 1.667 µM was found to be 2%. In addition, the IC50 at hNAMPT protein (NAMPT IC50 range class) was less than 0.1 µM. The inhibition at 1 µM at hNAMPT protein (compound concentration 1 μM) is 99%.

In the case of `CS(=O)(=O)c1cccc(-c2nc3cc(C(=O)NCCCc4ncc[nH]4)ccc3nc2-c2ccc(F)cc2)c1` [Compound I-384, 2-(4-fluorophenyl)-N-[3-(1H-imidazol-2-yl)propyl]-3-[3-(methylsulfonyl)phenyl]quinoxaline-6-carboxamide], the inhibition at 1.667 µM with PC3 cells came out at 2%. Besides, the IC50 on hNAMPT protein (NAMPT IC50 range class) fell in the range of 0.1 to 0.5 µM. Besides, at hNAMPT protein (compound concentration 1 μM), the inhibition at 1 µM stood at 84%.

Consider `CC(C)Oc1nc2ccc(C(=O)NCCCc3ncc[nH]3)cc2nc1-c1cccs1` [Compound I-385, N-[3-(1H-imidazol-2-yl)propyl]-2-isopropoxy-3-(2-thienyl)quinoxaline-6-carboxamide], for which, in the assay on PC3 cells, the inhibition at 1.667 µM is 2%. Besides, on hNAMPT protein (NAMPT IC50 range class), the half-maximal inhibitory concentration (IC50) was less than 0.1 µM. For the same compound, the inhibition at 1 µM at hNAMPT protein (compound concentration 1 μM) is greater than 99%.

Take `Cn1ccc2cc(-c3nc4cc(C(=O)NCCCc5ncc[nH]5)ccc4nc3-c3ccc(F)cc3)ccc21` [Compound I-386, 2-(4-fluorophenyl)-N-[3-(1H-imidazol-2-yl)propyl]-3-(1-methyl-1H-indol-5-yl)quinoxaline-6-carboxamide]: in the assay on PC3 cells, the inhibition at 1.667 µM stood at 2%. Besides, at hNAMPT protein (NAMPT IC50 range class), the half-maximal inhibitory concentration (IC50) lay in the range of 0.1 to 0.5 µM. Further, the inhibition at 1 µM at hNAMPT protein (compound concentration 1 μM) stood at 90%.

For `O=C(NCCCc1nnc[nH]1)c1ccc2nc(-c3ccc(F)cc3)c(-c3ccc(F)cc3)nc2c1` [Compound I-387, 2,3-bis(4-fluorophenyl)-N-[3-(4H-1,2,4-triazol-3-yl)propyl]quinoxaline-6-carboxamide], the inhibition at 1.667 µM in the assay with PC3 cells was determined as 5%. Also, the IC50 on hNAMPT protein (NAMPT IC50 range class) lay in the range of 0.5 to 1 µM. In addition, on hNAMPT protein (compound concentration 1 μM), the inhibition at 1 µM was determined as 61%.

For the compound `N#Cc1cc(-c2nc3cc(C(=O)NCCCc4ncc[nH]4)ccc3nc2-c2ccc(F)cc2)ccc1F` [Compound I-388, 3-(3-cyano-4-fluorophenyl)-2-(4-fluorophenyl)-N-[3-(1H-imidazol-2-yl)propyl]quinoxaline-6-carboxamide], the inhibition at 1.667 µM in the assay with PC3 cells was found to be 3%. For the same compound, the half-inhibitory concentration (IC50) on hNAMPT protein (NAMPT IC50 range class) lay within 0.1 to 0.5 µM. Moreover, the inhibition at 1 µM at hNAMPT protein (compound concentration 1 μM) was 81%.

Consider `O=C(NCCCc1ncc[nH]1)c1ccc2nc(-n3ccc4cnccc43)c(-c3ccc(F)cc3)nc2c1` [Compound I-389, 3-(4-fluorophenyl)-N-[3-(1H-imidazol-2-yl)propyl]-2-(1H-pyrrolo[3,2-c]pyridin-1-yl)quinoxaline-6-carboxamide], for which the inhibition at 1.667 µM in the assay on PC3 cells came out at 2%. For the same compound, the IC50 at hNAMPT protein (NAMPT IC50 range class) is less than 0.1 µM. Further, on hNAMPT protein (compound concentration 1 μM), the inhibition at 1 µM was found to be 93%.

Regarding `O=C(NCCCc1ncc[nH]1)c1ccc2nc(OCCc3cnoc3)c(-c3ccc(F)cc3)nc2c1` [Compound I-390, 3-(4-fluorophenyl)-N-[3-(1H-imidazol-2-yl)propyl]-2-[2-(isoxazol-4-yl)ethoxy]quinoxaline-6-carboxamide], the inhibition at 1.667 µM in the assay on PC3 cells amounted to 2%. Besides, the IC50 on hNAMPT protein (NAMPT IC50 range class) was less than 0.1 µM. Moreover, the inhibition at 1 µM on hNAMPT protein (compound concentration 1 μM) was determined as 99%.

Regarding `COc1nccc(-c2nc3cc(C(=O)NCCCc4ncc[nH]4)ccc3nc2-c2ccc(F)cc2)c1F` [Compound I-391, 3-(3-fluoro-2-methoxypyridin-4-yl)-2-(4-fluorophenyl)-N-[3-(1H-imidazol-2-yl)propyl]quinoxaline-6-carboxamide], the inhibition at 1.667 µM in the assay with PC3 cells is 3%. Besides, the IC50 at hNAMPT protein (NAMPT IC50 range class) was in the range of 0.1 to 0.5 µM. The inhibition at 1 µM on hNAMPT protein (compound concentration 1 μM) amounted to 83%.

As to `COc1cc(-c2nc3cc(C(=O)NCCCc4ncc[nH]4)ccc3nc2OC(C)C)c(F)cn1` [Compound I-392, 3-(5-fluoro-2-methoxypyridin-4-yl)-N-[3-(1H-imidazol-2-yl)propyl]-2-isopropoxyquinoxaline-6-carboxamide], in the assay with PC3 cells, the inhibition at 1.667 µM came to 1%. The half-inhibitory concentration (IC50) on hNAMPT protein (NAMPT IC50 range class) was 0.1 to 0.5 µM. Further, the inhibition at 1 µM on hNAMPT protein (compound concentration 1 μM) is 91%.

On to `N#Cc1ccc(Cl)c(-c2nc3cc(C(=O)NCCCc4ncc[nH]4)ccc3nc2-c2ccc(F)cc2)c1` [Compound I-393, 3-(2-chloro-5-cyanophenyl)-2-(4-fluorophenyl)-N-[3-(1H-imidazol-2-yl)propyl]quinoxaline-6-carboxamide], for which the inhibition at 1.667 µM in the assay with PC3 cells is 2%. Moreover, the half-maximal inhibitory concentration (IC50) at hNAMPT protein (NAMPT IC50 range class) is less than 0.1 µM. The inhibition at 1 µM on hNAMPT protein (compound concentration 1 μM) is 98%.

On to `Cc1cncc(-c2nc3cc(C(=O)NCCCc4ncc[nH]4)ccc3nc2-c2ccc(F)cc2)c1` [Compound I-394, 2-(4-fluorophenyl)-N-[3-(1H-imidazol-2-yl)propyl]-3-(5-methylpyridin-3-yl)quinoxaline-6-carboxamide], for which the inhibition at 1.667 µM in the assay on PC3 cells is 3%. Besides, the IC50 on hNAMPT protein (NAMPT IC50 range class) fell in the range of 0.1 to 0.5 µM. Also, the inhibition at 1 µM at hNAMPT protein (compound concentration 1 μM) was determined as 74%.

Take `Cc1cccc(-c2nc3cc(C(=O)NCCCc4ncc[nH]4)ccc3nc2-c2ccc(F)cc2)c1` [Compound I-395, 2-(4-fluorophenyl)-N-[3-(1H-imidazol-2-yl)propyl]-3-(3-methylphenyl)quinoxaline-6-carboxamide]: the inhibition at 1.667 µM in the assay with PC3 cells stood at 2%. In addition, the inhibition at 1 µM at hNAMPT protein (NAMPT inhibition at compound concentration 1 μM) amounted to 83%. Further, on hNAMPT protein (NAMPT inhibition, IC50 range class), the IC50 was 0.1 to 0.5 µM.
